Measured values taken from US10729130B2, “Nematicidal compositions and methods of using them” (Eden Research plc, priority 2004, dated 2020).

Assays:
Type in all cases: physicochemical
[1] = Screen of commercially available particles for terpene absorption (free terpene score); parameters: key: +: “free terpene” refers to the visible presence of terpene in the centrifuged reaction mixture; −: The absence of free terpene indicates complete absorption of the terpene by the particles; details: overnight
Procedure: The following protocol was performed to analyse the loading properties of different types of particles. The particles studied were Baker's Yeast Particles (Sigma Chemical Corp., St. Louis, Mo.), Nutrex™ Walls (Sensient Technologies, Milwaukee, Wis.), SAF-Mannan™ (SAF Agri, Minneapolis, Minn.), Nutricept Walls™ (Nutricepts Inc., Burnsville, Minn.), Levacan™ (Savory Systems International, Inc., Branchburg, N.J.) and WGP™ (Alpha-beta Technology, Inc. Worcester, Mass.).
The YP suspensions were prepared as follows: • Baker's yeast particle suspension (YP) was prepared by mixing 250 mg YP/ml 1% Tween 80. • Nutrex suspension was prepared by mixing 163 mg Nutrex YGP/ml 1% Tween 80. • SAF Mannan suspension was prepared by mixing 234 mg Biospringer YGP/ml 1% Tween 80. • Nutricepts suspension was prepared by mixing 99 mg Nutricepts YGP/ml 1% Tween 80. • Levacan suspension was prepared by mixing 217 mg Lev YGP/ml 1% Tween 80. • WGP suspension was prepared by mixing 121 mg WGP YGP/ml 1% Tween 80.
The packed volume of the above particles is identical which means that equal numbers of particles were assayed.
Loading reactions were set up as shown in Table 25 and left to incubate overnight. Samples were centrifuged at 14,000×g for 10 minutes and the appearance of free terpene floating on the aqueous layer and the color of the encapsulated terpenes in the pellet was scored. The highest volume of terpene absorbed by particles as evidenced by the absence of free terpene was recorded as the volume of absorbed terpene emulsion.

[2] = Baker's YP loading of different terpenes and terpene mixtures; parameters: key to Free Terpene: +: “free terpene” refers to the visible presence of terpene in the centrifuged reaction mixture; −: The absence of free terpene indicates complete absorption of the terpene by the particles; details: for Free Terpene: Baker's YP 250 mg/ml 500 μl; for Vol. Loaded μl: approximate maximal terpene loading in Baker's YP
Procedure: Increasing volumes of terpene emulsion were mixed with 250 mg/ml Baker's YP or 250 mg/ml SAF Mannan™ overnight at room temperature as shown in Tables 27 and 28. Samples were centrifuged at 14,000×g for 10 minutes and the appearance of free terpene floating on the aqueous layer was scored. The highest volume of terpene emulsion absorbed by Baker's YP or SAF Mannan™ as evidenced by the absence of free terpene was recorded as the volume of absorbed terpene emulsion. Colour of encapsulated terpenes in the pellet was recorded.
Percentage loaded represents a ratio of the amount of terpene loaded to the amount of particle present (weight for weight).

[3] = Terpene stability: yellow colored oxidation product (colour of encapsulated terpene pellet); parameters: key to Colour: W = white; Y = yellow; sl = slight; int = intermediate; key to Color: White, W; Yellow, Y; Very Yellow, VY; details: for Color: Table 26, scored at 24 hours
Procedure: Loading reactions were set up as shown in Table 25 and left to incubate overnight. Samples were centrifuged at 14,000×g for 10 minutes and the appearance of free terpene floating on the aqueous layer and the color of the encapsulated terpenes in the pellet was scored. The highest volume of terpene absorbed by particles as evidenced by the absence of free terpene was recorded as the volume of absorbed terpene emulsion. The reactions were incubated for 1, 3, 6, 9 and 24 hours at room temperature or 37° C. After incubation samples were centrifuged at 14,000×g for 10 minutes and the appearance of free terpene floating on the aqueous layer was scored. The highest volume of terpene absorbed by the particles as evidenced by the absence of free terpene was recorded as the volume of absorbed terpene emulsion. Colour of the encapsulated pellet was scored at 24 hours. Increasing volumes of terpene emulsion were mixed with 250 mg/ml Baker's YP or 250 mg/ml SAF Mannan™ overnight at room temperature as shown in Tables 27 and 28. Samples were centrifuged at 14,000×g for 10 minutes and the appearance of free terpene floating on the aqueous layer was scored. The highest volume of terpene emulsion absorbed by Baker's YP or SAF Mannan™ as evidenced by the absence of free terpene was recorded as the volume of absorbed terpene emulsion. Colour of encapsulated terpenes in the pellet was recorded.

[4] = Maximal terpene loading at high Baker's yeast particle levels (free terpene score); parameters: key to Free Terpene: +: “free terpene” refers to the visible presence of terpene in the centrifuged reaction mixture; −: The absence of free terpene indicates complete absorption of the terpene by the particles; details: for terpene emulsion absorbed and encapsulated per 125 mg of YP: Baker's YP 250 mg/ml; for Free Terpene: 500 μl 250 mg/ml YP
Procedure: Samples were centrifuged at 14,000×g for 10 minutes and the appearance of free terpene floating on the aqueous layer was scored. The expression “free terpene” refers to the visible presence of terpene in the centrifuged reaction mixture. The absence of free terpene indicates complete absorption of the terpene by the YP. The highest volume of terpene absorbed by the YP, as evidenced by the absence of free terpene, was recorded as the maximal volume of absorbed terpene emulsion.

[5] = Baker's 250 mg/ml, emulsion 125 μl L-carvone or 100 μl Citral
[6] = Levacan 217 mg/ml, emulsion 125 μl L-carvone or 100 μl Citral
[7] = Nutrex 163 mg/ml, emulsion 125 μl L-carvone or 100 μl Citral
[8] = Nutricepts 99 mg/ml, emulsion 125 μl L-carvone or 100 μl Citral
[9] = SAF Mannan 234 mg/ml, emulsion 125 μl L-carvone or 100 μl Citral
[10] = WGP 121 mg/ml, emulsion 125 μl L-carvone or 100 μl Citral
[11] = no particle, emulsion 125 μl L-carvone or 100 μl Citral in 1% Tween 80
[12] = emulsion 15 μl, 1% Tween-80 485 μl
[13] = emulsion 37.5 μl, 1% Tween-80 462.5 μl
[14] = emulsion 150 μl, 1% Tween-80 350 μl
[15] = emulsion 225 μl, 1% Tween-80 275 μl
[16] = Table 25, Baker's 250 mg/ml, overnight
[17] = Table 25, Levacan 217 mg/ml, overnight
[18] = Table 25, Nutrex 163 mg/ml, overnight
[19] = Table 25, Nutricepts 99 mg/ml, overnight
[20] = Table 25, SAF Mannan 234 mg/ml, overnight
[21] = Table 25, WGP 121 mg/ml, overnight
[22] = Table 27, Baker's YP, emulsion 15 μl
[23] = Table 27, Baker's YP, emulsion 37.5 μl
[24] = Table 27, Baker's YP, emulsion 112.5 μl
[25] = Table 27, Baker's YP, emulsion 150 μl
[26] = Table 27, Baker's YP, emulsion 225 μl
[27] = Table 27, Baker's YP, emulsion 450 μl
[28] = colour of encapsulated terpene in pellet, SAF Mannan 500 μl, terpene emulsion vol 15
[29] = colour of encapsulated terpene in pellet, SAF Mannan 500 μl, terpene emulsion vol 37.5
[30] = colour of encapsulated terpene in pellet, SAF Mannan 500 μl, terpene emulsion vol 75
[31] = colour of encapsulated terpene in pellet, SAF Mannan 500 μl, terpene emulsion vol 112.5
[32] = colour of encapsulated terpene in pellet, SAF Mannan 500 μl, terpene emulsion vol 150
[33] = colour of encapsulated terpene in pellet, SAF Mannan 500 μl, terpene emulsion vol 225
[34] = colour of encapsulated terpene in pellet, SAF Mannan 500 μl, terpene emulsion vol 450
[35] = emulsion 75 μl, 1% Tween-80 425 μl
[36] = emulsion 112.5 μl, 1% Tween-80 387.5 μl
[37] = emulsion 450 μl, 1% Tween-80 50 μl

L-carvone
Sl+: Free Terpene [4, 14]
W: Colour [3, 16] | Colour [3, 17] | Colour [3, 18] | Colour [3, 19] | Colour [3, 20] | Colour [3, 21] | Color ([3]; 37 ° C., Bakers 250 mg/ml) | Color ([3]; 37 ° C., Nutrex 100 mg/ml) | Color ([3]; 37 ° C., SAF 100 mg/ml) | Color ([3]; Rt, Bakers 250 mg/ml) | Color ([3]; Rt, Nutrex 100 mg/ml) | Color ([3]; Rt, SAF 100 mg/ml) | Colour ([3]; Table 27, Baker's YP, emulsion 7 μl as printed) | Colour [3, 22] | Colour [3, 23] | Colour [3, 24] | Colour [3, 25] | Colour [3, 26] | Colour [3, 27] | Colour [3, 28] | Colour [3, 29] | Colour [3, 30] | Colour [3, 31] | Colour [3, 32] | Colour [3, 33] | Colour [3, 34]
−: Free Terpene [1, 5] | Free Terpene [1, 7] | Free Terpene [1, 9] | Free Terpene [2, 12] | Free Terpene [2, 13] | Free Terpene [4, 12] | Free Terpene [4, 13] | Free Terpene [4, 35] | Free Terpene [4, 36]
+: Free Terpene [1, 6] | Free Terpene [1, 8] | Free Terpene [1, 10] | Free Terpene [1, 11] | Free Terpene [2, 14] | Free Terpene [2, 15] | Free Terpene [4, 15] | Free Terpene [4, 37]
33.3 % w/w: % Loaded w/w ([2]; maximal loading in Baker's YP, ratio of terpene loaded to particle present, weight for weight)
at least 112.5 μl: terpene emulsion absorbed and encapsulated per 125 mg of YP [4]
37.5 µL: Vol. Loaded μl [2]

CC(C)=CCCC(C)=CC=O [Citral, citral]
−: Free Terpene [1, 5] | Free Terpene [1, 7] | Free Terpene [1, 9] | Free Terpene [2, 12] | Free Terpene [2, 13] | Free Terpene [2, 35] | Free Terpene [4, 12] | Free Terpene [4, 13] | Free Terpene [4, 35]
W: Colour [3, 20] | Color ([3]; 37 ° C., SAF 100 mg/ml) | Color ([3]; Rt, SAF 100 mg/ml) | Colour [3, 28] | Colour [3, 29] | Colour [3, 30] | Colour [3, 31] | Colour [3, 32] | Colour [3, 33] | Colour [3, 34]
Sl+: Free Terpene [4, 36]
75 µL: Vol. Loaded μl [2]
VY: Color ([3]; 37 ° C., Bakers 250 mg/ml) | Color ([3]; 37 ° C., Nutrex 100 mg/ml)
at least 75 μl: terpene emulsion absorbed and encapsulated per 125 mg of YP [4]
Y: Colour [3, 16] | Colour [3, 18] | Colour [3, 19] | Colour ([3]; Table 25, no particle, emulsion in 1% Tween 80, overnight) | Color ([3]; Rt, Bakers 250 mg/ml) | Color ([3]; Rt, Nutrex 100 mg/ml) | Colour [3, 22] | Colour [3, 23] | Colour ([3]; Table 27, Baker's YP, emulsion 75 μl) | Colour [3, 24] | Colour [3, 25] | Colour [3, 26] | Colour [3, 27]
+: Free Terpene [1, 6] | Free Terpene [1, 8] | Free Terpene [1, 10] | Free Terpene [1, 11] | Free Terpene [2, 14] | Free Terpene [2, 15] | Free Terpene [2, 37] | Free Terpene [4, 14] | Free Terpene [4, 15] | Free Terpene [4, 37]
int: Colour [3, 17] | Colour [3, 21]
